According to publication PMC6220272, “Scaffold-Hopping from Synthetic Drugs by Holistic Molecular Representation” (Scientific Reports, 2018):

How the values were obtained:
Format in all cases: cell-based
[1] = test system: angiopoietin like protein 4 (ANGPTL4) mRNA in HepG2 cells; assay: Target gene quantification (quantitative real-time PCR), ANGPTL4; conditions: HepG2, 7 at 30 µM versus bexarotene at 1 µM, 8 h, qRT-PCR
Method: (§1) Moreover, 7 was characterized for its ability to modulate RXR target gene expression under more physiological conditions. Hepatoma cells (HepG2) were incubated with 7 (30 µM) or reference RXR agonist bexarotene (9, 1 µM) for eight hours and mRNA expression of RXR regulated genes ATP-binding cassette transporter A1 (ABCA1), angiopoietin like protein 4 (ANGPTL4) and apolipoprotein E (ApoE) was analysed by quantitative real-time PCR.
(§2) HepG2 cells were incubated with test compound 7 (30 µM) or bexarotene (1 µM) as positive control each dissolved in 0.1% DMSO or 0.1% DMSO alone as untreated control for 8 h, harvested, washed with cold phosphate buffered saline (PBS) and then directly used for RNA extraction with the Total RNA Mini Kit (R6834-02, Omega Bio-Tek, Inc., Norcross, GA, USA). 2 µg RNA were reverse-transcribed into cDNA using the High-Capacity cDNA Reverse Transcription Kit (4368814, Thermo Fischer Scientific, Inc.). RXR target gene expression was evaluated by quantitative real time PCR analysis with a StepOnePlus™ System (Life Technologies, Carlsbad, CA, USA) using PowerSYBRGreen (Life Technologies; 12.5 µl per well) and the primers reported in Supplementary Table 4[58]. […] The expression was quantified by the comparative ∆∆Ct method. […] Results are expressed as mean ± standard error of the mean (SEM) relative mRNA expression compared to DMSO (0.1%) control which was set as 1.

[2] = target: T1, human RXRα ligand binding domain (Gal4 hybrid receptor) (Homo sapiens, UniProt P19793); assay: Gal4 hybrid reporter gene assay RXRα; conditions: HEK293T cells, n ≥ 4, read-out: RXRα EC50 ± SEM
T1 construct: expressed in transfected cells; host or cells: HEK293T
T1 sequence (P19793 227-458 limits assumed): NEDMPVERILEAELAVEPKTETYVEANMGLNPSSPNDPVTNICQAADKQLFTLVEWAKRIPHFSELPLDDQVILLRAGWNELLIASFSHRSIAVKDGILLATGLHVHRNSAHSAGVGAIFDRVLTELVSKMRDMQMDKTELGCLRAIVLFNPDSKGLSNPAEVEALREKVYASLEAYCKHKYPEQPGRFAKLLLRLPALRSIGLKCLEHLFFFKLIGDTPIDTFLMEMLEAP
Method: (§3) The 20 top-ranked synthetic compounds were selected and tested in vitro for their modulatory activity on RXR (Supplementary Table 1). Compounds were tested in specific hybrid reporter gene assays for RXRα, RXRβ and RXRγ modulation[39]–[41]. These assays rely on a constitutively expressed hybrid receptor composed of the respective human RXR ligand binding domain and the DNA binding domain of the Gal4 receptor from yeast. A Gal4 responsive firefly luciferase was used as reporter gene and constitutively expressed renilla luciferase served as internal control for transfection efficiency and test compound toxicity. All selected compounds were tested at 50 µM concentration on RXRα and for active compounds (Supplementary Fig. 1), dose response curves were recorded on all three RXR subtypes.
(§4) The Gal4 hybrid reporter gene assays were conducted as reported previously[39]–[41]. pFA-CMV-based constructs comprising the ligand binding domain of the human nuclear receptor in question were used as expression plasmids for the chimera receptors. pFR-Luc (Stratagene) served as reporter plasmid and pRL-SV40 (Promega) for normalization of transfection efficiency and cell growth. The assays were conducted in 96-well format in HEK293T cells that were cultured as described previously[39]–[41]. Transient transfection was carried out using Lipofectamine LTX reagent (Invitrogen) according to the manufacturer’s protocol. After transfection and incubation with test compounds (12–14 h), cells were assayed for luciferase activity using Dual-Glo™ Luciferase Assay System (Promega) according to the manufacturer’s protocol. Luminescence was measured with an Infinite M200 luminometer (Tecan Deutschland GmbH). All hybrid assays were validated with reference agonists (PPARα: GW7647; PPARγ: pioglitazone; PPARδ: L165,041; LXRα/β: T0901317; FXR: GW4064; RXRs: bexarotene; RARs: tretinoin; VDR: calcitriol; CAR: CITCO; PXR: SR12813) which yielded EC50 values in agreement with literature. The assays were conducted in duplicates with at least two independent repeats and for active compounds repeated without hybrid receptor coding DNA for every test compound at the highest tested concentration to exclude unspecific effects.
(§5) Supplementary Figure 2. Dose-response curves for RXRα activation. Compounds were tested in specific hybrid reporter gene assays for RXRα, RXRβ and RXRγ modulation.^1–3 These assays rely on a constitutively expressed hybrid receptor composed of the respective human RXR ligand binding domain and the DNA binding domain of the Gal4 receptor from yeast. A Gal4 responsive firefly luciferase was used as reporter gene and constitutively expressed renilla luciferase served as internal control for transfection efficiency and test compound toxicity. […]

[3] = target: T2, farnesoid X receptor [FXR] (Homo sapiens, UniProt Q96RI1); assay: Gal4 hybrid reporter gene assay FXR (selectivity profiling)
T2 construct: expressed in transfected cells; host or cells: HEK293T
T2 sequence (Q96RI1 262-486 limits assumed): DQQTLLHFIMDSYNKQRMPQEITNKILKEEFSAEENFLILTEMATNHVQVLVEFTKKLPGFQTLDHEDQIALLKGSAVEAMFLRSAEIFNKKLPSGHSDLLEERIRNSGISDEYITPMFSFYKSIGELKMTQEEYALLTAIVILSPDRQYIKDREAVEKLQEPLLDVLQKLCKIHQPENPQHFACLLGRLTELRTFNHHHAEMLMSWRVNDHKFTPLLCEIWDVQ
Method: as §1
as §4, with “All hybrid assays were validated with reference agonists (PPARα: GW7647; PPARγ: pioglitazone; PPARδ: L165,041; LXRα/β: T0901317; FXR: GW4064; RXRs: bexarotene; RARs: tretinoin; VDR: calcitriol; CAR: CITCO; PXR: SR12813) which yielded EC50 values in agreement with literature. The assays were conducted in duplicates with at least two independent repeats and for active compounds repeated without hybrid receptor coding DNA for every test compound at the highest tested concentration to exclude unspecific effects.” left out

[4] = target: T3, human RXRγ ligand binding domain (Gal4 hybrid receptor) (Homo sapiens, UniProt P48443); assay: Gal4 hybrid reporter gene assay RXRγ; conditions: HEK293T cells, n ≥ 4, read-out: RXRγ EC50 ± SEM
T3 construct: expressed in transfected cells; host or cells: HEK293T
T3 sequence (P48443 231-459 limits assumed): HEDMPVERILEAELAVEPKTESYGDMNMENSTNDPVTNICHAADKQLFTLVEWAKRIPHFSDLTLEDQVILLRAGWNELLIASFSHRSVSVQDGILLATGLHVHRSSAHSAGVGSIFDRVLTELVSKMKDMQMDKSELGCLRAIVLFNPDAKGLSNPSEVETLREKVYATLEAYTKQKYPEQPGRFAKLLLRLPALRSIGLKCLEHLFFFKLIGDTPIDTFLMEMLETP
Method: as §3, §4, §5

[5] = test system: apolipoprotein E (ApoE) mRNA in HepG2 cells; assay: Target gene quantification (quantitative real-time PCR), ApoE; conditions: HepG2, 7 at 30 µM versus bexarotene at 1 µM, 8 h, qRT-PCR
Method: as §1, §2

- EC50 [2]: 32.1 ± 0.9 µM
- activity on FXR [3]: no activity
- EC50 [4]: 28.2 ± 0.1 µM
SMILES: CC(C)(C)c1cc(/C=N/NC(=O)c2ccc(N)cc2)cc(C(C)(C)C)c1 [Compound 7]
- induction of ANGPTL4 mRNA expression [1]: comparable efficacy as RXR agonist bexarotene
- induction of ApoE mRNA expression [5]: comparable efficacy as RXR agonist bexarotene
